The source of these data is patent US20040043959A1, “Combination therapies for treating methylthioadenosine phosphorylase deficient cells” (priority 2002, published 2004).

Each structure is given as a SMILES string.

The experiment has as its target T1, Human MTAP (Homo sapiens, UniProt Q13126).
T1 construct: six-histidine tag (His6) (N); made in house; host or cells: E. coli BL21 DE3
T1 sequence (Q13126 1-283): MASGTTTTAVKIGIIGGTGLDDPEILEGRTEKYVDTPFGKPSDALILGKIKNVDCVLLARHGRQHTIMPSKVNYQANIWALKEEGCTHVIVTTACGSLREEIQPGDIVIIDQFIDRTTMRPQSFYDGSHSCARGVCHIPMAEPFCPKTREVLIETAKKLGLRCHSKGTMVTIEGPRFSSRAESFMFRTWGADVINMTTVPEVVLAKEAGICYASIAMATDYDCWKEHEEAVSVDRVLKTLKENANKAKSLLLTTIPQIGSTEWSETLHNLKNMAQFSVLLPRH
Nature of the experiment: MTAP substrate assay, coupled spectrophotometric (adenine, xanthine oxidase). The class given is biochemical. The conditions noted are these: 2 nM MTAP; for activity at 50 µM: 10 min, compound 50 uM, relative to MTA at 50 uM, read-out: MT-A—50: initial velocity as a percentage of the initial velocity with MTA as substrate; for MT-A—10: initial velocity as a percentage of the initial velocity with MTA as substrate: compound 10 uM, relative to MTA at 10 uM. As to the method: An enzymatic assay to determine the activity of MTAP against a given substrate was performed. Human MTAP containing an N-terminal six-histidine tag was expressed in E. coli BL21 DE3 cells. The protein was purified to homogeneity by Ni2+ affinity chromatography. Enzymatic activity was measured using a coupled spectrophotometric assay designed to monitor the reaction product adenine (Savarese, T. M., Crabtree, G. W., and Parks, R. E. Jr., (1980) Biochem. Pharmacol. 30, 189-199). Various concentrations of the indicated 5′-deoxymethylthio adenosine (MTA) or substrate were incubated in assay buffer (40 mM potassium phosphate buffer, 1 mM, and DTT 0.8 units/ml xanthine oxidase coupling enzyme) for 5 minutes at 37° C. The reaction was initiated by the addition of MTAP. The exact concentration of enzyme used varied for each substrate tested and ranged from 2 nM to 500 nM. Activity as a function of enzyme concentration was determined for each substrate tested to ensure that the appropriate enzyme concentration was used. Activity was detected by continuous monitoring of absorbance at 305 nm for 10 minutes (ΔE=15,500 M^−1).
Library compounds (10 and 50 uM) were tested using the assay described above with 2 nM MTAP enzyme. The resultant initial velocities are reported as a percentage of the initial velocity observed when MTA is the substrate. MTA controls, 10 and 50 uM concentrations, were run on each plate alongside the library compounds.

Turning to `CNC(=O)c1ccccc1SC[C@H]1O[C@@H](n2cnc3c(N)ncnc32)[C@H](O)[C@@H]1O` [2(G)(161), 2-({[(2S, 3S, 4R, 5R)-5-(6-amino-9H-purin-9-yl)-3,4-dihydroxytetrahydro-furan-2-yl]methyl}thio)-N-methylbenzamide], the activity at 50 µM was determined as 28% and the “MT-A—10: initial velocity as a percentage of the initial velocity with MTA as substrate” value is 14.5%.
For `Cc1cc(N)c(SC[C@H]2O[C@@H](n3cnc4c(N)ncnc43)[C@H](O)[C@@H]2O)cc1C` [2(G)(84)], in that order: 5% and 4%.
For `CCc1cnc(SC[C@H]2O[C@@H](n3cnc4c(N)ncnc43)[C@H](O)[C@@H]2O)[nH]c1=O` [2(G)(4), 2-({[(2S, 3S, 4R, 5R)-5-(6-amino-9H-purin-9-yl)-dihydroxytetrahydrofuran-2-yl]methyl}thio)-5-ethylpyrimidin-4(3H)-one], in that order: 49% and 38%.
For `COC(=O)c1ccccc1SC[C@H]1O[C@@H](n2cnc3c(N)ncnc32)[C@H](O)[C@@H]1O` [2(G)(107), methyl 2-({[(2S, 3S, 4R, 5R)-5-(6-amino-9H-purin-9-yl)-3,4-dihydroxy-tetrahydrofuran-2-yl]-methyl}thio)-benzoate], in that order: 2% and 4%.
Turning to `COC(=O)CSC[C@H]1O[C@@H](n2cnc3c(N)ncnc32)[C@H](O)[C@@H]1O` [2(G)(54), methyl ({[(2S, 3S, 4R, 5R)-5-(6-amino-9H-purin-9-yl)-3,4-dihydroxy-tetrahydrofuran-2-yl]methyl}thio)acetate], the activity at 50 µM turned out to be 44% and the “MT-A—10: initial velocity as a percentage of the initial velocity with MTA as substrate” value stood at 36%.
For `Cc1cc(C)n2nc(SC[C@H]3O[C@@H](n4cnc5c(N)ncnc54)[C@H](O)[C@@H]3O)nc2n1` [2(G)(32), (2R, 3R, 4S, 5S)-2-(6-amino-9H-purin-9-yl)-5-{[(5,7-dimethyl[1,2,4]-triazolo[1,5-a]pyrimidin-2-yl)thio]methyl}tetra-hydrofuran-3,4-diol], in that order: 7% and 6%.
In the case of `N#Cc1cccnc1SC[C@H]1O[C@@H](n2cnc3c(N)ncnc32)[C@H](O)[C@@H]1O` [2(G)(89), 2-({[(2S, 3S, 4R, 5R)-5-(6-amino-9H-purin-9-yl)-3,4-dihydroxytetrahydro-furan-2-yl]methyl}thio)nicotinonitrile], the activity at 50 µM was 5% and the “MT-A—10: initial velocity as a percentage of the initial velocity with MTA as substrate” value worked out at 3%.
For `C#CCSc1nnc(SC[C@H]2O[C@@H](n3cnc4c(N)ncnc43)[C@H](O)[C@@H]2O)s1` [2(G)(30), (2R, 3R, 4S, 5S)-2-(6-amino-9H-purin-9-yl)-5-({[5-(prop-2-yn-1-ylthio)-1,3,4-thiodiazol-2-yl]thio}methyl)tetra-hydrofuran-3,4-diol], in that order: 12% and 11%.
Take `CCC(C)SC[C@H]1O[C@@H](n2cnc3c(N)ncnc32)[C@H](O)[C@@H]1O` (stereo partly drawn) [2(G)(68), (2R, 3R, 4S, 5S)-2-(6-amino-9H-purin-9-yl)-5-[(sec-butylthio)methyl]tetra-hydrofuran-3,4-diol]: the activity at 50 µM was 45% and the “MT-A—10: initial velocity as a percentage of the initial velocity with MTA as substrate” value is 42%.
On to `Nc1ncnc2c1ncn2[C@@H]1O[C@H](CSCC(F)(F)F)[C@@H](O)[C@H]1O` [2(G)(38), (2R, 3R, 4S, 5S)-2-(6-amino-9H-purin-9-yl)-5-{[(2,2,2-trifluoroethyl)-thio]methyl}tetrahydro-furan-3,4-diol], for which the activity at 50 µM came out at 32% and the “MT-A—10: initial velocity as a percentage of the initial velocity with MTA as substrate” value was 30%.
On to `Nc1ncnc2c1ncn2[C@@H]1O[C@H](CSCCCCCCO)[C@@H](O)[C@H]1O` [2(G)(78)], for which the activity at 50 µM was determined as 6% and the “MT-A—10: initial velocity as a percentage of the initial velocity with MTA as substrate” value was 3%.
For `Cn1c(SC[C@H]2O[C@@H](n3cnc4c(N)ncnc43)[C@H](O)[C@@H]2O)nc2ccccc21` [2(G)(113), (2R, 3R, 4S, 5S)-2-(6-amino-9H-purin-9-yl)-5-{[(1-methyl-1H-benzimidazol-2-yl)thio]-methyl}tetrahydro-furan-3,4-diol], in that order: 43% and 48%.
For `Nc1ncnc2c1ncn2[C@@H]1O[C@H](CSCCc2ccncc2)[C@@H](O)[C@H]1O` [2(G)(58), (2R, 3R, 4S, 5S)-2-(6-amino-9H-purin-9-yl)-5-{[(2-pyridin-4-ylethyl)thio]methyl}tetra-hydrofuran-3,4-diol], in that order: 47% and 38%.
The like results for `Nc1ncnc2c1ncn2[C@@H]1O[C@H](CSc2cccs2)[C@@H](O)[C@H]1O` [2(G)(87), (2R, 3R, 4S, 5S)-2-(6-amino-9H-purin-9-yl)-5-[(2-thienylthio)methyl]-tetrahydrofuran-3,4-diol] were, in that order, 33% and 36%.
For `NC(=O)CSC[C@H]1O[C@@H](n2cnc3c(N)ncnc32)[C@H](O)[C@@H]1O` [2(G)(159), 2-({[(2S, 3S, 4R, 5R)-5-(6-amino-9H-purin-9-yl)-3,4-dihydroxytetrahydro-furan-2-yl)methyl}thio)-acetamide], the activity at 50 µM worked out at 28% and the “MT-A—10: initial velocity as a percentage of the initial velocity with MTA as substrate” value amounted to 7.5%.
As to `Nc1ncnc2c1ncn2[C@@H]1O[C@H](CSc2ccc(Cl)cc2)[C@@H](O)[C@H]1O` [2(G)(19), (2R, 3R, 4S, 5S)-2-(6-amino-9H-purin-9-yl)-5-{[(4-chlorophenyl)thio]-methyl}tetrahydro-furan-3,4-diol], the activity at 50 µM worked out at 17% and the “MT-A—10: initial velocity as a percentage of the initial velocity with MTA as substrate” value is on record as 19%.
For `Nc1ncnc2c1ncn2[C@@H]1O[C@H](CSc2cc(Cl)cc(Cl)c2)[C@@H](O)[C@H]1O` [2(G)(131), (2R, 3R, 4S, 5S)-2-(6-amino-9H-purin-9-yl)-5-{[(3,5-dichlorophenyl)-thio]methyl}tetrahydro-furan-3,4-diol], in that order: 11% and 11.5%.
On to `Cc1ccc(SC[C@H]2O[C@@H](n3cnc4c(N)ncnc43)[C@H](O)[C@@H]2O)cc1C` [2(G)(150), (2R, 3R, 4S, 5S)-2-(6-amino-9H-purin-9-yl)-5-{[(3,4-dimethylphenyl)-thio]methyl}tetrahydro-furan-3,4-diol], for which the activity at 50 µM worked out at 33.5% and the “MT-A—10: initial velocity as a percentage of the initial velocity with MTA as substrate” value was found to be 2%.
For `Nc1ncnc2c1ncn2[C@@H]1O[C@H](CSc2nccnc2CCc2ccccc2)[C@@H](O)[C@H]1O` [2(G)(94), (2R, 3R, 4S, 5S)-2-(6-amino-9H-purin-9-yl)-5-({[3-(2-phenylethyl)-pyrazin-2-yl]thio}methyl)tetrahydrofuran-3,4-diol], the activity at 50 µM is 5% and the “MT-A—10: initial velocity as a percentage of the initial velocity with MTA as substrate” value is recorded as 5%.
For the molecule `Nc1ncnc2c1ncn2[C@@H]1O[C@H](CSc2ccccc2OC(F)(F)F)[C@@H](O)[C@H]1O` [2(G)(116), (2R, 3R, 4S, 5S)-2-(6-amino-9H-purin-9-yl)-5-({[2-(trifluoromethoxy)-phenyl]thio}methyl)tetra-hydrofuran-3,4-diol], the activity at 50 µM amounted to 7% and the “MT-A—10: initial velocity as a percentage of the initial velocity with MTA as substrate” value was 3%.
As to `CCCCOC(=O)CSC[C@H]1O[C@@H](n2cnc3c(N)ncnc32)[C@H](O)[C@@H]1O` [2(G)(133), Butyl ({[(2S, 3S, 4R, 5R)-5-(6-amino-9H-purin-9-yl)-3,4-dihydroxytetra-hydrofuran-2-yl]methyl}-thio)acetate], the activity at 50 µM worked out at 31.5% and the “MT-A—10: initial velocity as a percentage of the initial velocity with MTA as substrate” value turned out to be 22.5%.
For `Nc1ncnc2c1ncn2[C@@H]1O[C@H](CSc2ncccn2)[C@@H](O)[C@H]1O` [2(G)(8), (2R, 3R, 4S, 5S)-2-(6-amino-9H-purin-9-yl)-5-[(pyrimidin-2-ylthio)methyl]tetrahydro-furan-3,4-diol], in that order: 59% and 54%.
